How the values were obtained:
[1] = tested on: MiaPaca-2 pancreatic tumor xenograft; assay: Human pancreatic tumor xenograft in nude mice, subcutaneous treatment; format: in vivo
Description: The test was carried out comparing the anti-tumor activity of cortexolone 17α-benzoate at two different dosages (8.0 mg/kg, corresponding approximately at 230 μM, and 40 mg/kg, corresponding approximately at 1150 μM), versus the vehicle (i.e. 0.4% (v/v) tween 80 and 0.5% (w/v) carboxymethylcellulose in normal saline) and versus the comparator Cyproterone Acetate at two different dosages (7.4 mg/kg and 37 mg/kg).
1×10^6 MiaPaca-2 cells suspended in matrigel were subcutaneously injected into 6 week old athymic nude mice.
The treatment with the tested compounds, with the vehicle and with the comparative compound, was initiated after the tumor volume has reached 50 mm3 after transplantation. All compounds were injected 100 μL/mouse subcutaneously of low dose solution (approximately 230 μM) or 100 μL/mouse of high dose solution (approximately 1150 μM) of cortexolone 17α-benzoate, vehicle and cyproterone acetate, respectively. Compounds and controls were administered subcutaneously daily for 28 days.
Tumors were measured every 4 days with a digital caliper.
The results are plotted in FIG. 1 as average change in tumor volume relative to the start of treatment. Tumor volume was calculated according to the formula 0.5236(r1)^2(r2) where r1<r2.
The test was carried out comparing the anti-tumor activity of cortexolone 17α-valerate-21-propionate (CB-03-10) at two different dosages (approximately 8.6 mg/kg and 43 mg/kg) versus the vehicle (i.e. 0.4% (v/v) tween 80 and 0.5% (w/v) carboxymethylcellulose in normal saline) and versus the comparator Cyproterone Acetate at two different dosages (7.4 mg/kg and 37 mg/kg).
The treatment with the tested compound, with the vehicle and with the comparative compound was initiated after the tumor has reached a volume of 50 mm3 after implantation, injecting subcutaneously 100 μL/mouse of low dose solution (approximately 230 μM) or 100 μL/mouse of high dose solution (approximately 1150 μM) of cortexolone 17α-valerate-21-propionate (CB-03-10), vehicle and cyproterone acetate, respectively. Compounds and controls were administered subcutaneously daily for 28 days.
The results are plotted in FIG. 2 as average change in tumor volume relative to the start of treatment. Tumor volume was calculated according to the formula 0.5236(r1)^2(r2) where r1<r2.
CPA a well-known anti-androgen was used as control. Briefly 1×10^6 MiaPaca2 cells suspended in matrigel were subcutaneously (SC) injected into 6 week old male athymic nude mice. Tumors were measured every 4 days with a digital caliper. Tumor volume was calculated according to the formula: 0.5236(r1)2(r2) where r1<r2. Treatment with CB-03-10 and controls compounds was initiated after the tumor had reached 50 mm3. Compounds diluted in DMSO/2-hydroxypropyl b-cyclodextrin (vehicle) were injected subcutaneously (SC) daily (100 μL/mouse) at the concentration of 40 mg/Kg daily for 28 consecutive days.

[2] = tested on: LNCaP prostate cancer xenograft; assay: Human prostate cancer xenograft in nude mice, oral treatment; format: in vivo
Description: 3×10^6 LNCaP cells suspended in matrigel were subcutaneously injected (on the right flank) into 6 week old male athymic nude mice. Tumors were measured as described above. Treatment with CB-03-10 and controls compounds was initiated after the tumor had reached 50 mm3. […] Oral dosing was daily (100 mg/Kg in 200 μL/mouse) for 28 consecutive days. Results were plotted as average change in tumor volume relative to the start of treatment.

Glucocorticoid Receptor = molecular target: T1, Glucocorticoid Receptor (Homo sapiens, UniProt P04150); assay: GR transcriptional reporter assay, agonist mode; format: cell-based
T1 construct: endogenous in cells; host or cells: human kidney epithelial cells
T1 sequence (P04150 1-777): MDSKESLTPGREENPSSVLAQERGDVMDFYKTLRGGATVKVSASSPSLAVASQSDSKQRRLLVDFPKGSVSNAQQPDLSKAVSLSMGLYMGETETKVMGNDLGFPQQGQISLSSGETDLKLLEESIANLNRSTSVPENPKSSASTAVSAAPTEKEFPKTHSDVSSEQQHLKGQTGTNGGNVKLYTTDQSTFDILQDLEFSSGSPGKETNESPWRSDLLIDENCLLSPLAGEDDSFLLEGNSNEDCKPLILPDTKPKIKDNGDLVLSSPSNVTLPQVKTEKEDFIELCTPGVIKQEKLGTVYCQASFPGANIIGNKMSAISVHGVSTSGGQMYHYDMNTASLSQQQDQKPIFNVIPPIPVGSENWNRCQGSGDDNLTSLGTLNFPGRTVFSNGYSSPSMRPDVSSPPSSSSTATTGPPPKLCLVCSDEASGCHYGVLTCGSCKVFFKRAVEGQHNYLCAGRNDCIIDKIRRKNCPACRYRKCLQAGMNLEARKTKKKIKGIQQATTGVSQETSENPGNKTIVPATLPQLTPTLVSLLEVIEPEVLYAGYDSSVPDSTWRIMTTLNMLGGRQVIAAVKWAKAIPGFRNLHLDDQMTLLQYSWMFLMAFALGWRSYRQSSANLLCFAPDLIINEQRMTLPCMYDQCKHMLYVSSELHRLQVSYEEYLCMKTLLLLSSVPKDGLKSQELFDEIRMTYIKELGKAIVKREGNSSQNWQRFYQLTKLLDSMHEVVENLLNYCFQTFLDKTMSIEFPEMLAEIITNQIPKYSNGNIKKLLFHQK
Description: The androgen and glucocorticoid hormones elicit divergent and often opposing effects in cells, tissues, and animals. […] CB-03-10 GR antagonist and agonist activities were tested in an in vitro assay. Briefly, human kidney epithelial cells were transfected with DNA construct containing GR binding sites linked to luminescent based reporter molecule. After 24 hours, cells were treated under antagonist or agonist modes. After an additional 24 hours, luminescence which is proportional to GR agonist transcriptional activity was quantitated.
Agonist Assay—was based on induction of luminescence by CB-03-10
The agonist activity of CB-03-10 was compared to a RU486 which is known to not have agonist activity.

Caspase 3/7 = assay: Caspase activity assay in MiaPaca2 cells; format: cell-based; details: 8, 24, 48 hours, FIG. 11
Description: To better analyze the phenomenon the enzymatic activity of Caspase 8 (initiator caspase for Extrinsic Pathway) and Caspase 9 (initiator caspase for Intrinsic Pathway) and of Caspases 3 and 7 (effector caspases) were measured.
After 8, 24, & 48 hours incubation with test compounds, cells were lysed in buffer containing the caspase 3/7 or 8 or 9 substrate and a stable luciferase in proprietary buffers. The lysates were transferred to white opaque plates before measuring luminescence in a Tecan S afire instrument. Parallel plates treated identically, were used to determine viable cells. All caspase activities were corrected for the number of viable cells.

[3] = In vitro metabolism in rat plasma; format: in vitro ADME; details: 37 C; liquid chromatography; FIG. 13
Description: To obtain some insights on the metabolism of CB-03-10 in human and rat plasma, a specific assay was designed. Briefly the compound was incubated at different time in human and rat plasma at 37 C. After incubation the samples were tested for presence of the intact compound by liquid chromatography.

Panc1 = details: human, 3 days
HT29 = assay: In vitro proliferation, larger cancer cell line panel; details: HT29

SMILES: CCCCC(=O)O[C@]1(C(=O)COC(=O)CC)CC[C@H]2[C@@H]3CCC4=CC(=O)CC[C@]4(C)[C@H]3CC[C@@]21C [CB-03-10, cortexolone 17α-valerate-21-propionate]
- pancreatic tumor size increase relative to initial tumor size ([1]; Example 6, high dose approximately 43 mg/kg (1150 μM, 100 μL/mouse) SC daily 28 days, for the time of treatment): less than 5 fold
- pancreatic tumor size increase relative to the initial size ([1]; Example 22, 40 mg/Kg SC daily 28 days, during the treatment period): less than 5 fold
- Median survival ([1]; Example 22, 40 mg/Kg SC daily 28 days, vehicle 60 days): 70 days
- tumor size increase ([1]; Example 22, 14 days after treatment was stopped, vehicle 14-fold): 6 fold
- in vivo antitumor activity compared with Cyproterone Acetate ([1]; Examples 5 and 6, FIG. 3, same animal model): antitumor activity higher than Cyproterone Acetate
- average tumor volume, times smaller than in the vehicle group ([2]; 6 weeks after treatment was stopped): 3.6 times
- prostate tumor size increase after treatment was stopped ([2]; oral 100 mg/Kg daily 28 days, after stop): 5 fold
- tumor volume increase relative to start of treatment ([2]; oral 100 mg/Kg daily, treatment period of 28 days, negative control 10-fold): 2 fold
- statistical significance of tumor growth versus vehicle ([2]; oral gavage, FIG. 16): statistically significantly different from day 7 up to day 60
- GR agonist activity relative to that of 50 nM Dex (Glucocorticoid Receptor; at very high concentrations): 20%
- GR agonist activity (Glucocorticoid Receptor; induction of luminescence, FIG. 8): essentially ineffective as GR agonist
- Caspase 3/7 induction / caspase activation profile (Caspase 3/7): already at 8 hours at and a really high level after 48 hours incubation
- degradation in rat plasma [3]: degraded more rapidly in rat compared to human plasma
- TI on Resting PBMC (Panc1): 2
- TI on Stimulated PBMC (Panc1): 2
- Therapeutic Index = IC50 resting PBMC/IC50 cancer cell (Panc1): 2
- Therapeutic Index = IC50 stimulated PBMC/IC50 cancer cell (Panc1): 2
- Therapeutic Index = IC50 resting PBMC/IC50 cancer cell (HT29; Table IV): 3
- Therapeutic Index = IC50 stimulated PBMC/IC50 cancer cell (HT29; Table VII): 3
